Assay results as given in patent US10869928B2, “Lyophilized preparation of cytotoxic dipeptides” (ONCOPEPTIDES AB, priority 2011, dated 2020).
Where a name gives a salt, the structure may show the parent alone.

Assays:
[1] = Determination of dissolution rate (Example 5); assay type: physicochemical; conditions: Solution: 5% glucose + Polysorbate 80
Procedure: A 5% glucose solution was added to each plastic vial containing J1. The vials were shaken and filtered at different time-points. The filtrate was transferred to glass vials and the amount of dissolved J1 was determined by HPLC.

[2] = Stability in aqueous solutions; assay type: physicochemical
[3] = Stability of melphalan flufenamide dissolved in DMA in a glucose solution; conditions: dissolved in DMA (dimethylacetamide) in a glucose solution

| Structure (SMILES) | Time (min) to reach steady state dissolution [1] | hydrolysis in water ([2]; water) | degradation [3] | times more stable in aqueous solutions compared to J1 ([2]; aqueous solutions, relative to J1) |
| --- | --- | --- | --- | --- |
| CCOC(=O)[C@H](Cc1ccc(F)cc1)NC(=O)[C@@H](N)Cc1ccc(N(CCCl)CCCl)cc1 [Experiment J1, melphalanyl-L-p-fluorophenylalanine ethyl ester hydrochloride] | 1 to 2 min | quickly hydrolyzed | 7 % degradation/h |  |
| N[C@@H](Cc1ccc(N(CCCl)CCCl)cc1)C(=O)O [Melphalan, p-[bis-(2-chloroethyl)amino]phenylalanine, reference compound] |  |  |  | 10,000 times |
